What is called inhibition is the change of the read-out against control, counted positive when it falls. Read a high inhibition as a strong effect. The half-life is how long it takes for the measured level to halve.

The source made the active and inactive calls.

The target in data set [1] is T1, Bifunctional epoxide hydrolase 2 (Homo sapiens) (UniProt P34913).
T1 sequence (whole entry): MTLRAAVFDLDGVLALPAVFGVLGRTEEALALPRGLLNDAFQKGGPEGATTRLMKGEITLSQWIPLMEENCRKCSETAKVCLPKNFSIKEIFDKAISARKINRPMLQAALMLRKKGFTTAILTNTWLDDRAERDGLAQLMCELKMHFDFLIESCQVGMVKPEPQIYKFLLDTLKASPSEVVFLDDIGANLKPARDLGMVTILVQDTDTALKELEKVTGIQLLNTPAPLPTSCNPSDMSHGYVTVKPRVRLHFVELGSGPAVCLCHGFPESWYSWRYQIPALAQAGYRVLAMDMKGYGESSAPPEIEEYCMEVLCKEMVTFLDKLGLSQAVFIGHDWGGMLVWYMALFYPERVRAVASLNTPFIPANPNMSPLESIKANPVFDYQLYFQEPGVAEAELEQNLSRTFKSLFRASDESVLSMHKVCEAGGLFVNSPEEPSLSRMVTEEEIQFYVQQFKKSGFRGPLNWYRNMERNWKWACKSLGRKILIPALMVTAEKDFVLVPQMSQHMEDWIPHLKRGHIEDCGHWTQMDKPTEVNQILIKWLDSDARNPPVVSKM
The experiment in a line: Inhibition of sEH (unknown origin) at 100 nM relative to control.

A short description of data set [2]: Microsomal stability in dog liver microsomes assessed as half life. Type of data set: ADME, Canis lupus familiaris, Microsome. On the technique in general: Liver microsomes are a subcellular fraction often used to study metabolism.
The nature of data set [3]: Microsomal stability in human liver microsomes assessed as half life. Type of data set: ADME, Microsome.
Data set [4] can be described thus: Microsomal stability in rat liver microsomes assessed as half life. Format: ADME, Microsome.
The nature of data set [5]: Microsomal stability in mouse liver microsomes assessed as half life. Format: ADME, Microsome.
Data set [6] concerns Rattus norvegicus. The experiment in a line: Antinociceptive activity in carrageenan-induced inflammatory pain Sprague-Dawley rat model assessed as increase in mechanical withdrawal threshold at 50 mg/kg, ip by von-frey filament assay. Format: functional, organism-based.

Take `Cc1cc(C(=O)Nc2ccc3c(c2)OCO3)ccc1N(CCN1CCCC1=O)C(=O)Nc1ccc(Cl)cc1`: the inhibition in data set [1] was determined as 92.7%. The half-life in data set [2] was 3.3 min; in data set [3], 3.9 min.

As to `Cc1cc(C(=O)Nc2ccc(Cl)cc2)ccc1N(CCN1CCCC1=O)C(=O)Nc1ccc(Cl)cc1`, the inhibition in data set [1] amounted to 98.9%. The half-life in data set [2] stood at 11 min; in data set [4] it was 4.5 min; in data set [3], 9.5 min; in data set [5], 8.8 min.

For `Cc1cc(C(=O)Nc2ccc(F)cn2)ccc1N(CCN1CCCC1)C(=O)Nc1ccc(Cl)cc1`, in data set [1], the inhibition is 94.8%. The half-life in data set [2] came to 33.5 min; in data set [4], 16 min; in data set [3], 27.5 min; in data set [5], 26.2 min.

In data set [1], `Cc1cc(C(=O)Nc2ccc(Cl)cc2)ccc1N(CCN1CC[S+]([O-])CC1)C(=O)Nc1ccc(Cl)cc1` gave an inhibition of 90.4%.

`Cc1cc(C(=O)Nc2ccc(C(F)(F)F)nc2)ccc1N(CCN1CCOCC1)C(=O)Nc1ccc(Cl)cc1` came in with an inhibition in data set [1] of 87.8%. The half-life stood at 5.4 min in data set [2], 5.4 min in data set [4], 5.8 min in data set [3] and 7.7 min in data set [5].

Turning to `Cc1cc(C(=O)Nc2ccc(Cl)cc2)ccc1N(CCN1CCCC1)C(=O)Nc1ccc(Cl)cc1`, the result in data set [6] was Active. The molecule also had an inhibition in data set [1] of 98.5%. The half-life amounted to 137 min in data set [2], 27.3 min in data set [4], 197 min in data set [3] and 35.8 min in data set [5].

In data set [1], `Cc1cc(C(=O)Nc2ccccn2)ccc1N(CCN1CCOCC1)C(=O)Nc1ccc(Cl)cc1` showed an inhibition of 85.8%.

Regarding `Cc1ccc(-c2cc(C(F)(F)F)nn2-c2ccc(S(N)(=O)=O)cc2)cc1`, in data set [6], the outcome was Active.

With `O=C(NC12CC3CC(CC(C3)C1)C2)N[C@H]1CC[C@H](Oc2ccc(C(=O)O)cc2)CC1`, the result in data set [6] was Active.

Consider `COCCN(C(=O)Nc1ccc(Cl)cc1)c1ccc(C(=O)Nc2ccc(Cl)cc2)cc1C`, for which the inhibition in data set [1] is 70.5%.

The molecule `Cc1cc(C(=O)Nc2ccc(Cl)cc2)ccc1N(CCO)C(=O)Nc1ccc(Cl)cc1` displayed an inhibition in data set [1] of 74.3%.

Consider `Cc1cc(C(N)=O)ccc1N(CCN1CCOCC1)C(=O)Nc1ccc(Cl)cc1`, for which the inhibition in data set [1] was found to be 75.9%.

In data set [1], `CCN(CC)CCN(C(=O)Nc1ccc(Cl)cc1)c1ccc(C(=O)Nc2ccc(Cl)cc2)cc1C` had an inhibition of 67.2%.

`Cc1cc(C(=O)Nc2ccc(F)cn2)ccc1N(CCN1CCCC1=O)C(=O)Nc1ccc(Cl)cc1` gave an inhibition in data set [1] of 94.5%. Further, the half-life in data set [2] worked out at 3.1 min; in data set [4], 3.1 min; in data set [3], 4 min; in data set [5], 3.7 min.

Take `Cc1cc(C(=O)Nc2ccc(Cl)cc2)ccc1NC(=O)Nc1ccc(Cl)cc1`: in data set [1], the inhibition is 80.3%.

Consider `Cc1cc(C(=O)Nc2ccc(Cl)cc2)ccc1N(CCN1CCOCC1=O)C(=O)Nc1ccc(Cl)cc1`, for which the inhibition in data set [1] turned out to be 93.9%. Further, the half-life in data set [2] came to 12.9 min; in data set [4], 10.7 min; in data set [3], 9.1 min; in data set [5], 8.9 min.

`Cc1cc(C(=O)Nc2ccc(C#N)cc2)ccc1N(CCN1CCOCC1)C(=O)Nc1ccc(Cl)cc1`: the inhibition in data set [1] was found to be 64%.

Molecule `Cc1cc(C(=O)Nc2ccc(F)cn2)ccc1N(CCN1CCOCC1)C(=O)Nc1ccc(Cl)cc1` had an inhibition in data set [1] of 97.8%.

`Cc1cc(C(=O)Nc2ccc(Cl)cc2)ccc1N(CCN1CCOC[C@H]1C)C(=O)Nc1ccc(Cl)cc1` showed an inhibition in data set [1] of 67.1%.

`Cc1cc(C(=O)Nc2ccc(Cl)cc2)ccc1N(CCN1CCS(=O)(=O)CC1)C(=O)Nc1ccc(Cl)cc1` came in with an inhibition in data set [1] of 95.2%.

As to `Cc1cc(C(=O)Nc2ccc(Cl)cc2)ccc1N(CC(C)C)C(=O)Nc1ccc(Cl)cc1`, the inhibition in data set [1] worked out at 69.4%.

With `Cc1cc(C(=O)Nc2nccs2)ccc1N(CCN1CCOCC1)C(=O)Nc1ccc(Cl)cc1`, the inhibition in data set [1] is 62.8%.

In data set [1], `Cc1cc(C(=O)Nc2ccc(Cl)cc2)ccc1N(CCN1CCOC[C@@H]1C)C(=O)Nc1ccc(Cl)cc1` registered an inhibition of 63.1%.

In turn, `Cc1cc(C(=O)Nc2cnccn2)ccc1N(CCN1CCOCC1)C(=O)Nc1ccc(Cl)cc1` showed an inhibition in data set [1] of 62.3%.

In data set [1], `Cc1cc(C(=O)Nc2ccc(Cl)cc2)ccc1N(CCN1CCSCC1)C(=O)Nc1ccc(Cl)cc1` came in with an inhibition of 83.7%.

`Cc1cc(C(=O)Nc2cnn(C)c2)ccc1N(CCN1CCOCC1)C(=O)Nc1ccc(Cl)cc1` displayed an inhibition in data set [1] of 87.7%.

Consider `Cc1cc(C(=O)Nc2ccc(Cl)cc2)ccc1N(CCN(C)C)C(=O)Nc1ccc(Cl)cc1`, for which, in data set [1], the inhibition came to 67.7%.

`Cc1cc(C(=O)Nc2ccc3c(c2)OCO3)ccc1N(CCN1CCCC1)C(=O)Nc1ccc(Cl)cc1`: the inhibition in data set [1] was determined as 83.3%.

As to `Cc1cc(C(=O)Nc2ccc(Cl)cc2)ccc1N(CCN1CCCCC1)C(=O)Nc1ccc(Cl)cc1`, the inhibition in data set [1] stood at 92.5%.

In data set [1], `CC(=O)c1ccc(NC(=O)c2ccc(N(CCN3CCOCC3)C(=O)Nc3ccc(Cl)cc3)c(C)c2)cc1` had an inhibition of 84.5%.

Regarding `Cc1cc(C(=O)Nc2ccc3c(c2)OCO3)ccc1N(CCN1CCOCC1)C(=O)Nc1ccc(Cl)cc1`, the inhibition in data set [1] came to 95.6%. Further, the half-life in data set [2] amounted to 5.2 min; in data set [3], 6.9 min; in data set [5] it was 4 min.

In the case of `Cc1cc(C(=O)Nc2ccc(Cl)cc2)ccc1N(CC(=O)N1CCOCC1)C(=O)Nc1ccc(Cl)cc1`, in data set [1], the inhibition was determined as 95.7%. Moreover, the half-life amounted to 37 min in data set [2], 45.9 min in data set [4], 31.9 min in data set [3] and 28.3 min in data set [5].

The values are drawn from ChEMBL document CHEMBL5126572, “Synthesis and biological evaluation of new series of benzamide derivatives containing urea moiety as sEH inhibitors” (Bioorg Med Chem Lett, 2022).
